Patent US8901276B2, “Peptide reagents and methods for detection of colon dysplasia” (The Regents of the University of Michigan, priority 2010, dated 2014)
Where no end group is shown, it is not given here.

Columns and labels:
[1] = test system: colonic adenomas; test: In vivo NIR imaging of Cy5.5-labeled AKP peptides; design: species or system CPC;Apc mice; details: for T/B ratio: 100 μM, 1.5 mL topical, 5 min; for detection of lesions by size: adenomas ˜0.5 to 4 mm
Protocol: The binding activity of the synthetic peptides to colonic dysplasia was assessed in vivo in 3 cohorts of CPC;Apc mice: 1) AKP-multimer, n=14 mice with n=33 adenomas, 2) AKP-monomer, n=14 mice with n=27 adenomas, and 3) trilysine core, n=8 mice with n=17 adenomas as a control. For the imaging studies, anesthesia was induced and maintained in the animals with inhaled isoflurane mixed with oxygen via a nose cone at a dose of 4% and 2% at a flow rate of 0.5 liter/min, respectively. Prior to applying the peptides, the colon was prepped using a tap water lavage. The adenomas were viewed endoscopically, and videos were recorded using white light with a small animal endoscope (Karl Storz Veterinary Endoscopy, Goleta, Calif.). The colon was rinsed with water until all mucous and other debris was removed. Adenomas from approximately 0.5-4 mm in diameter that were not covered in debris, including stool and mucous, were included in the study.
The Cy5.5-labeled peptides were delivered at a concentration of 100 μM in PBS containing 2.5% DMSO (dimethyl sulfoxide) through the instrument channel of the endoscope. During peptide administration, 1.5 mL of peptide was delivered to the distal colon in each mouse. The peptide was allowed to incubate for 5 min after which the colon was cleansed 3× with a tap water to remove the unbound peptide. Prior to imaging, the colon was inspected for residual peptide solution, and when clean, the colon was insufflated with air and imaged with the wide field endoscope which provides excitation at 671 nm. Fluorescence and reflectance videos were collected using Axiovision 4.8.1 software. Fluorescence videos were collected at 100 ms/frame (10 Hz), and transferred to the computer for storage by a firewire connection. A filter wheel was incorporated into the handle of the housing to quickly switch between collection of reflectance and fluorescence images. White light, fluorescence and reflectance images were collected from 1) n=14 mice having n=33 adenomas with AKP-multimer, 2) n=14 mice having n=27 adenomas with AKP-monomer, and 3) n=8 mice having n=17 adenomas with the trilysine (control). The CPC;Apc mice imaged ranged in age from 3 to 6 months. Fluorescence images were exported as videos in zvi format (16 bit digital resolution) using LabView software. Sequentially-collected white light and fluorescence images for each adenoma were analyzed. Separate regions of interest (ROI) were defined around the adenoma and adjacent normal-appearing mucosa on the white light image, and the ROI's were overlayed onto the fluorescence images. The target to-background (T/B) ratio was determined by ratioing the mean intensities from these 2 ROI's.

[2] = test system: CCD-841Con cells; test: Flow cytometry of FITC-labeled AKP peptides; assay type: cell-based, human; details: 10 μM, 60 min, 4° C.
From the text: (§1) Peptides labeled with 5-FITC were used for the validation assays of cell binding. Preferential binding of the multimer peptide, monomer peptide, and trilysine to different human colorectal cancer (SW480, and HT29) and control cells (CCD841-Con) was validated on flow cytometry. A total of 5×10^5 cells were used with each probe. The confluent cells were detached using enzyme free cell dissociation buffer (Invitrogen, Carlsbad, Calif.) or trypsin with 0.25% EDTA (Mediatech Inc, Manassa, Va.) and immersed in blocking buffer, PBS with 1% bovine serum albumin (BSA), for 30 min at 4° C. with continuous agitation. After blocking, cells were washed with 1×PBS and spun down for 5 min at 1000 rpm. Then cells were incubated with the 5-FITC labeled peptides and trilysine (10 μM) for 60 min at 4° C. with continuous agitation. The cells were then washed 3× with cold PBST followed by immediate fixation for 10 min with 4% paraformaldehyde. The cells were washed again (1×) with PBS and resuspended in 1 mL of PBS. Flow cytometry was performed using FACSDiVa (BD® LSRII, BD Biosciences, San Jose, Calif.) and analyzed using Flowjo analysis program (Tree Star Inc, Ashland, Oreg.). The gain was kept constant for all experiments.

[3] = test system: HT29 cells; test: Flow cytometry of FITC-labeled AKP peptides; assay type: cell-based, human
From the text: as §1

[4] = test system: SW480 cells; test: Flow cytometry of FITC-labeled AKP peptides; assay type: cell-based, human; details: 10 μM, 60 min, 4° C.
From the text: as §1

[5] = test system: CCD-841Con cells; test: Fluorescence microscopy of FITC-labeled AKP peptides; assay type: cell-based, human; details: 10 μM, 4° C., 1 hr
Protocol: (§2) Preferential binding of the FITC-labeled peptides to the target and non-target cells as mentioned above was further validated via fluorescence microscopy. Cells (˜7.5×10^3) were seeded on cover slips to ˜80% confluence. The cells were then incubated with 10 μM of 5-FITC-labeled peptides and trilysine at 4° C. for 1 hr followed by staining with 1 μg/mL Hoechst dye (Sigma Aldrich, St. Louis, Mo.). The cells were washed 3× with PBS and fixed with 4% paraformaldehyde at RT for 10 min. After fixation, the cells were washed again with PBS (1×) and mounted with ProLong Gold reagent (Invitrogen, Carlsbad, Calif.) and fluorescence images were collected with confocal microscopy (Leica TCS SP5 Microsystems, Bannockburn, Ill.). The specific peptide binding activity of the FITC-labeled AKP-multimer and AKP-monomer peptides was compared.

[6] = test system: HT29 cells; test: as above; assay type: cell-based, human
Protocol: as §2

[7] = test system: SW480 cells; test: as above; assay type: cell-based, human; details: 10 μM, 4° C., 1 hr
Protocol: as §2

[8] = test system: HT29 cells; test: Measurement of binding affinity by flow cytometry; design: species or system human; details: FITC-labeled, 0 to 10 μM, 4° C., 1 hr
Protocol: (§3) The binding affinity of multimer and monomer peptide was measured by varying the concentration of the 5-FITC-labeled peptides and trilysine incubated with the target cells (1×10^5) until saturation of fluorscence intensity was achieved. The FITC-labeled peptide was serially diluted in PBS at concentrations that varied from 0 to 10 μM and incubated with the target cells at 4° C. for 1 hr. The unbound peptide was rinsed off the cells by washing 3× with cold PBS/0.2% Tween-20 solution. The cells were fixed with 4% PFA, as mentioned above, washed 1× with PBS, and resuspended in 1 mL of PBS. Cells were transferred to a 5 mL tube and subjected to flow-cytometric analysis. The median fluorescence intensity from each concentration of peptides was used to calculate the affinity constant. The equilibrium dissociation constants (Kd=1/Ka) of the peptide-cell interaction were obtained by fitting the data to the non-linear equation I[X]=(I0+ImaxKa[X])/(I0+Ka[X]). I0 and Imax are the initial and maximum fluorescence intensities, corresponding to no peptide and at saturation, respectively, and [X] represents the concentration of the bound peptide. Origin 6.1 data analysis software (Origin Lab Corp, Northampton, Mass.) was used to perform a non-linear least square fit of the data.

[9] = test system: SW480 cell line; test: Measurement of binding affinity by flow cytometry; design: species or system human; details: FITC-labeled, 0 to 10 μM, 4° C., 1 hr
Protocol: as §3

[10] = test system: HT29 cells; test: Kinetic measurements by flow cytometry; assay type: binding, human; details: for rate constant K: 10 μM, 4° C., 0-60 min, first order fit
Protocol: The binding kinetics for AKP-monomer and AKP-multimer peptide was further evaluated on the target cells in the presence of 10 μM peptide concentration. The target cells (5×10^5) were detached and blocked as mentioned earlier and incubated with both monomer and multimer peptides at 4° C. over time from 0-60 min. After completing the incubation for each time course, the samples were prepared for flow cytometry, as mentioned above. The kinetics of peptide binding with the cell surface was determined by measuring the shift in the intensity of FITC-channel as a function of time. The resulting data were converted to median values as a function of time, and the rate constant was calculated using first order rate kinetics Y=a−b*exp^(−kx); where a=maximum value, b=difference in intensity (I−I0), and K=rate constant. Curve fits were performed using Origin 6.1 data analysis software.

[11] = test system: colonic adenomas; test: In vivo small animal fluorescence endoscopy with FITC-labeled peptides; design: species or system CPC;Apc mice; details: topical, 5 min incubation, mean±SD
Protocol: Prior to peptide administration, the colon was prepped using a tap water lavage. Using a small animal endoscope (Karl Storz Veterinary Endoscopy, Goleta, Calif.) with an instrument channel for performing biopsy, polyps suitable for peptide administration were located and the colon was rinsed with water until all mucous was removed. FITC-labeled Peptide 1 and Control peptide 1 were delivered in 1×PBS through the instrument channel. The peptides were allowed to incubate for 5 minutes after which the colon was cleansed 3× with a tap water to remove the unbound peptide. […] Fluorescence excitation produced with a 450-475 nm passband filter that can be manually switched to the optical path of a 175 W Nova Xenon light source was delivered to the endoscope via a 3 mm diameter fluid light cable (250 cm length). Fluorescence images were collected with a 510 nm long-pass barrier filter to block the excitation light and detected with a 3-chip color camera with an integrated parfocal zoom lens. Real time video was recorded via firewire connected to a personal computer. Polyps in CPC;Apc mice developing distal colonic adenomas (Peptide 1, n=6 mice, n=18 polyps; Control peptide 1, n=4 mice, n=7 polyps) in addition to Cre recombinase negative littermate controls (Peptide 1, n=2 mice) and Hyperplastic Kras mice (Peptide 1, n=3 mice) were imaged using both white light and fluorescence endoscopy. […]

[12] = test system: dysplastic crypts of excised polyps; test: Confocal fluorescence imaging of ex vivo binding; design: species or system CPC;Apc mice; details: ex vivo incubated polyps
Protocol: Preferential binding of the Peptide 1 compared to the Control peptide 1 on the adenomatous polyps was again confirmed with confocal microscopy. After peptide incubation, excised polyps were incubated ex vivo in 1 μg/mL Hoechst dye for 5 min to stain living nuclei, rinsed 3× with 1×PBS and imaged on an Olympus Confocal Microscope (Olympus, Tokyo, Japan).

[13] = test system: isolated colonic epithelial cells from adenomas; test: Flow cytometry of FITC-conjugated phage clones; assay type: cell-based, CPC;Apc mice
From the text: Specific binding of the candidate peptides to primary dysplastic colonic epithelial cells were validated on flow cytometry ex vivo and with small animal endoscopy in vivo using FITC-labeled peptides using a non-scanning white light endoscope.
Phages that bound to colonic adenomas approximately 10 times greater in number than to normal appearing colonic mucosa were chosen. As a result, 42 individual phage clones were sequenced from the third round of biopanning, and were individually amplified and conjugated to 5′-FITC. Binding to isolated colonic epithelial cells from adenomas for each phage clone was analyzed using flow cytometry. A common 7-mer phage that expresses the sequence HAIYPRH (SEQ ID NO: 29) is a known contaminant, and was run (labeled # in Supplementary FIG. 1B) to ensure the validity of the assay. […] Six phage clones with a T/B ratio (target to wild-type phage)>1.9 were identified as ALTPTPP (SEQ ID NO: 30), NLVNLLP (SEQ ID NO: 31), ANYPREP (SEQ ID NO: 32), ATTVPAS (SEQ ID NO: 33), LTTHYKL (SEQ ID NO: 26), and AKPGYLS (SEQ ID NO: 25). The KCCFPAQ (SEQ ID NO: 2) peptide had been previously found to bind to human HT29 cells.

[14] = cell line not specified (SW480, HT29, CCD-841Con tested)

In the case of “AKP-multimer: tetrameric version of AKPGYLS anchored on a trilysine core; Cy5.5 label in vivo, FITC label in vitro (also: tetramer on trilysine core, Cy5.5 or FITC label)”, the “NIR fluorescence signal from adenomas” value ([1]; Cy5.5-labeled) is reported as “significantly amplified”, the “average fluorescence intensity from colonic adenomas relative to AKP-monomer and trilysine control” value ([1]; Cy5.5-labeled) is reported as about 1.8 fold and the T/B ratio ([1]; Cy5.5-labeled) is reported as 3.84±0.26. The “detection of lesions by size” value [1] was “detected all lesions regardless of size”, the “counts relative to unstained cells” value [2] was 2.2 times and the “counts relative to unstained cells” value ([3]; HT29, FITC-labeled, 10 μM, 60 min, 4° C.) was 26.1 times. For the same substance, the “counts relative to unstained cells” value [4] was 20.2 times, the “binding to plasma membrane” value [5] was “not to CCD-841Con cells” and the “binding to plasma membrane” value ([6]; HT29, FITC-labeled, 10 μM, 4° C., 1 hr) was “bound specifically to the plasma membrane”. For the same substance, the “binding to plasma membrane” value [7] was “bound specifically to the plasma membrane”, the Kd [8] was 6.4 nM and the Kd [9] was 101 nM. For the same substance, the “binding speed relative to AKP-monomer” value [10] was about 2 fold, the “rate constant K” value [10] was 0.1136 min⁻¹ and the “rate constant K” value ([10]; listed as multimer) was 0.1136 min⁻¹.

For “AKPGYLSGGGSK-NH2 [AKP-monomer, Cy5.5 label in vivo, FITC label in vitro]”, the “NIR fluorescence signal from adenomas” value ([1]; Cy5.5-labeled) was “faint fluorescence intensity”, the T/B ratio ([1]; Cy5.5-labeled) was 2.21±0.13 and the “detection of lesions by size” value [1] was “did not visualize lesions smaller than ˜1 mm”. For the same substance, the “extent of cell binding on flow cytometry” value [3, 14] was “bound to a lower extent than the AKP-multimer”, the “cell staining on microscopy” value [6, 14] was “lower fluorescence intensity at the cell surface” and the Kd [8] was 310 nM. For the same substance, the Kd [9] was 1210 nM and the “rate constant K” value [10] was 0.0663 min⁻¹.

In the case of “GGGAGGGA [FITC-Control peptide 1, control peptide containing Gly and Ala, FITC-labeled]”, the “T/B (polyp/normal colon, target to background ratio)” value [11] is reported as 1.14±0.15 and the “binding to dysplastic crypts, confocal microscopy” value [12] is reported as “Minimal to no binding”.

In the case of HAIYPRH, the “T/B ratio (target to wild-type phage)” value [13] is reported as 1.10±0.08.
